Assay results as given in the NIST ThermoML archive (doi:10.1016/j.jct.2015.07.028).
Numbers after ± are expanded uncertainties.

Details: Liquid, Closed cell (Static) method

O [water]
Details	vapor or sublimation pressure [kPa]
276.1 K	0.753 ± 0.011
276.16 K	0.76 ± 0.011
278.47 K	0.894 ± 0.013
280.8 K	1.05 ± 0.015
283.11 K	1.223 ± 0.02
285.49 K	1.43 ± 0.021
285.52 K	1.44 ± 0.021
288.24 K	1.708 ± 0.022
290.65 K	1.994 ± 0.026
290.71 K	2.01 ± 0.026
293.51 K	2.398 ± 0.03
295.49 K	2.697 ± 0.034
295.58 K	2.707 ± 0.034
298.22 K	3.182 ± 0.038
298.33 K	3.202 ± 0.039
300.72 K	3.703 ± 0.045
300.8 K	3.708 ± 0.045
302.99 K	4.213 ± 0.051
305.57 K	4.882 ± 0.057
305.6 K	4.869 ± 0.057
307.8 K	5.499 ± 0.065
310.42 K	6.36 ± 0.074
310.49 K	6.404 ± 0.074
312.73 K	7.192 ± 0.083
315.28 K	8.236 ± 0.095
315.37 K	8.313 ± 0.096
317.67 K	9.333 ± 0.11
320.11 K	10.56 ± 0.12
320.2 K	10.63 ± 0.12
322.5 K	11.93 ± 0.14
322.54 K	11.99 ± 0.14
325.01 K	13.51 ± 0.15
